The target in one test is T1, HSL (Mus musculus, UniProt P54310).
T1 construct: freshly dissected adipose tissue explants from BALB/c or B6 ob/ob inguinal fat pad; from tissue; host or cells: inguinal fat pad (white adipose tissue) explants of BALB/c and C57BL/6J ob/ob (Agrp-/-) mice
T1 sequence (P54310 1-759): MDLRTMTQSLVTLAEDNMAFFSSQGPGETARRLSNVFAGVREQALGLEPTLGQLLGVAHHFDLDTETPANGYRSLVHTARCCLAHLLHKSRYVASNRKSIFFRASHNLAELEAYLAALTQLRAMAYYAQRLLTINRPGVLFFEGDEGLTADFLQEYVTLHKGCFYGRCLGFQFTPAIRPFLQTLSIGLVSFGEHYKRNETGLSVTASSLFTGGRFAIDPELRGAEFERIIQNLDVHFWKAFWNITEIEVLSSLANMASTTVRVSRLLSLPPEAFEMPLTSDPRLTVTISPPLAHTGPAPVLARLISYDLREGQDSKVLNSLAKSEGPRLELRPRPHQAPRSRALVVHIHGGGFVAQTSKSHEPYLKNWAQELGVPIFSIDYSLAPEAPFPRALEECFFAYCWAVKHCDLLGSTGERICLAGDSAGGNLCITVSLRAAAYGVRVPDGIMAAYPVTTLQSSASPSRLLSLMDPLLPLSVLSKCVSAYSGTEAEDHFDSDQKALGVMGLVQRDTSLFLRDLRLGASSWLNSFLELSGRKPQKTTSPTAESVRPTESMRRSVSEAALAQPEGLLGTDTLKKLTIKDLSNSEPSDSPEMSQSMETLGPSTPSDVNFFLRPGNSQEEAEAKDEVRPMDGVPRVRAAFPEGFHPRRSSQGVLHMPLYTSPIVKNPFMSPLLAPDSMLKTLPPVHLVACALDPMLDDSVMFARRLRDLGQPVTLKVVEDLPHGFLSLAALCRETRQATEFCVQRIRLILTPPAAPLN
The test can be described thus: Free fatty acid release (lipolysis) from adipose tissue explants with the HSL inhibitor. The test is classed as cell-based. An excerpt:
Free fatty acids (FFA) release from adipose tissue explants was further measured in presence or not of the HSL inhibitor CAY 10499. […] FFA release was compared from freshly dissected adipose tissue explants from BALB/c or B6 ob/ob inguinal fat pad. It was observed that FFA production was increased in explants from BALB/c relative to B6 ob/ob mice when HSL activity is inhibited by CAY10499. The same difference between BALB and B6 lipolysis (Δ^−CAY=[…] versus Δ^+CAY=397.1±8.1, P=0.31) without the HSL inhibitor (i.e. HSL+ATGL activity) or with CAY10499 (i.e. ATGL activity), respectively. […] Of note, the increased ATGL activity is greater than the increase in ATGL protein content in adipose tissue. This may be due to the concomitant increase of CGI-58 expression that is known to enhance ATGL lipolytic activity.

Another test concerns ATGL. As to the kind of experiment: ATGL degradation in WAT fat fragments, anti-ATGL immunoblot. Conditions: for ATGL concentrations on co-treatment with cycloheximide: B6 ob/ob fat co-treated with cycloheximide and the inhibitor. It counts as cell-based, mouse. The method, then: FIGS. 5A-5C. Regulation of ATGL expression through degradation pathways. (5A) ATGL mRNA level in WAT was determined by RT-qPCR (n=6). (5B) WAT fragments of BALB/c and B6 ob/ob mice were incubated for 5 hours with cycloheximide (CHX) and WAT protein lysates were immunoblotted using anti-ATGL to follow degradation rates of ATGL. (5C) B6 ob/ob WAT fragments were treated with MG132 (MG, proteasome inhibitor) and chloroquine (CQ, lysosome inhibitor). Protein extracts were analyzed by Western blot. Densitometry analysis was performed (5B,5C) and data are expressed as average ±SEM (n=6). Unpaired t-tests were performed, *P<0.05.
Thus, BALB/c ob/ob fat has long lived ATGL whereas C57BL/6 ob/ob fat has ATGL that is degraded within several hours. […] Thus, ATGL appears to be degraded by both the lysosomal and proteasomal pathways.
On the technique in general: A western blot detects proteins with antibodies after separation by electrophoresis.

This note sets out measurements from US20140294854A1, “TARGET DIRECTED TO ADIPOCYTES, METHODS AND ASSAYS FOR TREATMENT OF OBESITY” (priority 2011, published 2014).

Structures are written as SMILES. Residues, ends and D or L forms follow the SMILES beside them. *: point of attachment. Cbz = O=C(OCc1ccccc1)*

Turning to `COc1nn(-c2ccc(NC(=O)OCc3ccccc3)c(C)c2)c(=O)o1` [CAY10499], the “Lipolysis induced with selective β3AR agonist CL316,243” value on HSL (in presence of 100 μM CAY10499) is reported as “blunted”. The “Difference between BALB and B6 lipolysis (Δ+CAY), FFA release” value on HSL (inguinal fat pad explants of BALB/c vs B6 ob/ob with CAY10499 (i.e. ATGL activity), P=0.31 versus without inhibitor) was determined as 397.1±8.1.

`CC(C)C[C@@H](C=O)NC(=O)[C@H](CC(C)C)NC(=O)[C@H](CC(C)C)NC(=O)OCc1ccccc1` [MG-132] (Cbz-Leu-Leu-Leu-aldehyde): the “ATGL concentrations on co-treatment with cycloheximide” value in the test with ATGL was “ATGL concentrations persisted”. For `C[C@@H]1C[C@@H]([C@H](O)CC2CC(=O)NC(=O)C2)C(=O)[C@@H](C)C1` [cycloheximide], the “ATGL concentrations after cycloheximide treatment” value in the test with ATGL (fat fragments from B6 ob/ob mice, incubated 5 hours) is given as “dramatic reduction in ATGL concentrations”. Also, the “ATGL amounts after cycloheximide treatment” value with ATGL (fat fragments from BALB/c ob/ob mice, incubated 5 hours) is given as “no alteration in ATGL amounts”.

Consider `CCN(CC)CCCC(C)Nc1ccnc2cc(Cl)ccc12` (stereo not drawn) [chloroquine], for which, in the test with ATGL, the “ATGL concentrations on co-treatment with cycloheximide” value was “ATGL concentrations persisted”.
